Read-outs that look alike come from different tables or passages of the source.
What was measured:
[1] = target: T1, hGCGR (Homo sapiens, UniProt P47871); assay: Functional cAMP formation (HTRF) in HEK-293 clonal cells expressing hGCGR, 0.1% bovine casein, without or with 1.0% human serum albumin; type: cell-based; details: geometric mean
T1 construct: expressed in transfected cells
Method in brief: (§1)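 Readings of the HTRF 665/620 nm ratio, which falls as cAMP rises, were converted to nM cAMP using a standard curve after 30 min peptide exposure at 37° C.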

[2] = target: hGLP-1R (Homo sapiens, UniProt P43220); assay: Functional cAMP formation (HTRF) in HEK-293 clonal cells expressing hGLP-1R, 0.1% bovine casein, without or with 1.0% human serum albumin; type: cell-based; parameters: expressed in transfected cells; details: 37° C.; for EC50: 0.1% bovine casein and 1.0% human serum albumin, geometric mean
Sequence of hGLP-1R (P43220 24-463): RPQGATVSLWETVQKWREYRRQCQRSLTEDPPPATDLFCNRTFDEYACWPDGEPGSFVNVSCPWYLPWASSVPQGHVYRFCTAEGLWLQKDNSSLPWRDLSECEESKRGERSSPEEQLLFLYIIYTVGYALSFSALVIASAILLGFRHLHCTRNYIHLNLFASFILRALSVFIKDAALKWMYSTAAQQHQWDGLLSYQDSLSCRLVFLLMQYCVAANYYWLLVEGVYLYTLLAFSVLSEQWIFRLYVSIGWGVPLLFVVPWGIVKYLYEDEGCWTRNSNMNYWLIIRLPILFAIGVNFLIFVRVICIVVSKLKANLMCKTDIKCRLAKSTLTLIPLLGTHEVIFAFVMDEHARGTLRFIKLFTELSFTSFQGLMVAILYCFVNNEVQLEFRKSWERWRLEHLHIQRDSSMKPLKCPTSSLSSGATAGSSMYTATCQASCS
Method in brief: as §1

[3] = target: T2, hGIPR (Homo sapiens, UniProt P48546); assay: Functional cAMP formation (HTRF) in HEK-293 clonal cells expressing hGIPR, 0.1% bovine casein, without or with 1.0% human serum albumin; type: cell-based; details: for EC50: 0.1% bovine casein and 1.0% human serum albumin, geometric mean; for Emax: percent of maximal response to GIP(1-42)NH2
T2 construct: expressed in transfected cells
T2 sequence (P48546 22-466): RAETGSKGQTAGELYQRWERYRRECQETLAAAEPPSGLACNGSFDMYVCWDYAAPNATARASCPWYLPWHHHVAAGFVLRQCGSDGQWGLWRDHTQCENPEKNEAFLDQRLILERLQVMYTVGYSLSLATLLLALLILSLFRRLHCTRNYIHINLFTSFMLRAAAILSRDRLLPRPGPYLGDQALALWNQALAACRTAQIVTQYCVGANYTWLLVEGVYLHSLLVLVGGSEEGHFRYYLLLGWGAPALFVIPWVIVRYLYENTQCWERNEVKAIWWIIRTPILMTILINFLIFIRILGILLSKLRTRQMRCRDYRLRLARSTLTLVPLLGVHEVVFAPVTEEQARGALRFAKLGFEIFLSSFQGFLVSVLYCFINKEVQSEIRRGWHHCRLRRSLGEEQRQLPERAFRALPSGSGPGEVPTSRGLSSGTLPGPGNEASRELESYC
Method in brief: as §1

[4] = target: T3, human GLP-1 receptor (hGLP-1R) (Homo sapiens, UniProt P43220); assay: [125I]-GLP-1 binding, SPA with membranes of HEK293 cells expressing hGLP-1R
T3 construct: expressed in transfected cells; crude membranes
T3 sequence (P43220 24-463): as the sequence (P43220 24-463) above
Method: Two methods are used for the preparation of crude cell membranes.
Method 1: Frozen cell pellets are lysed on ice in hypotonic buffer containing 50 mM Tris HCl, pH 7.5, and Roche Complete™ Protease Inhibitors with EDTA. […] The homogenate is centrifuged at 4° C. at 1100 × g for 10 minutes. The supernatant is collected and stored on ice while the pellets are resuspended in homogenization buffer and rehomogenized as described above. The homogenate is centrifuged at 1100 × g for 10 minutes. The second supernatant is combined with the first supernatant and centrifuged at 35000 × g for 1 hour at 4° C. The resulting membrane pellet is resuspended in homogenization buffer containing protease inhibitors at approximately 1 to 3 mg/mL, quick frozen in liquid nitrogen and stored as aliquots in a -80° C. freezer until use.
The homogenate is centrifuged at 4° C. at 1800 × g for 15 minutes. The supernatant is collected and stored on ice while the pellets are resuspended in homogenization buffer (without DNAse I) and rehomogenized as described above. The homogenate is centrifuged at 1800 × g for 15 minutes. The second supernatant is combined with the first supernatant and centrifuged an additional time at 1800 × g for 15 minutes. The overall supernatant is then centrifuged at 25000 × g for 30 minutes at 4° C. The resulting membrane pellet is resuspended in homogenization buffer (without DNAse I) containing protease inhibitors at approximately 1 to 3 mg/mL and stored as aliquots in a -80° C. freezer until use.
The human GLP-1 receptor binding assay is performed using an SPA format with WGA beads. The binding buffer contains 25 mM HEPES, pH 7.4, 2.5 mM CaCl2, 1 mM MgCl2, 0.1% (w/v) bacitracin, 0.003% (w/v) TWEEN®-20, and Roche Complete™ Protease Inhibitors without EDTA.
Raw CPM data for concentration curves of peptides, Gcg, GLP-1, or GIP are converted to percent inhibition by subtracting nonspecific binding (binding in the presence of excess unlabeled Gcg, GLP-1, or GIP, respectively) from the individual CPM values and dividing by the total binding signal, also corrected by subtracting nonspecific binding. Data are analyzed using four-parameter (curve maximum, curve minimum, IC50, Hill slope) nonlinear regression routines (Genedata Screener, version 12.0.4, Genedata AG, Basal, Switzerland). […] Values for Ki are reported as the geometric mean, with error expressed as the standard error of the mean (SEM) and n is equal to the number of independent replicates (determined in assays performed on different days). Geometric Means are calculated as follows: […]
The Ki Ratio (Ki for native control peptide/Ki for test compound) at each receptor and each species is calculated. The Ki Ratio is a rapid indication of the apparent affinity of a peptide compared to the native control peptide.
n=⅟x means that only one value out of the total number of replicates (x) is used to express the mean. SEM is only calculated when n=2 or greater non-qualified results exist. Means are expressed as GeoMetric means with the standard error of the mean (SEM) and the number of replicates (n) indicated in parenthesis.

[5] = 0.1% bovine casein and 1.0% human serum albumin, 37° C., read-out: hGCGR EC50, nM (SEM, n)
[6] = cAMP, incubated at 37° C., 0.1% bovine casein (no human serum albumin), read-out: hGCGR EC50, nM (SEM, n)
[7] = read-out: hGLP-1R EC50, nM (SEM, n)
[8] = 37° C., read-out: hGIPR EC50, nM (SEM, n)
[9] = human GLP-1R, geometric mean (SEM, n), read-out: Binding Affinity Ki, nM (SEM, n) hGLP-1R

T1 sequence (P47871 26-477): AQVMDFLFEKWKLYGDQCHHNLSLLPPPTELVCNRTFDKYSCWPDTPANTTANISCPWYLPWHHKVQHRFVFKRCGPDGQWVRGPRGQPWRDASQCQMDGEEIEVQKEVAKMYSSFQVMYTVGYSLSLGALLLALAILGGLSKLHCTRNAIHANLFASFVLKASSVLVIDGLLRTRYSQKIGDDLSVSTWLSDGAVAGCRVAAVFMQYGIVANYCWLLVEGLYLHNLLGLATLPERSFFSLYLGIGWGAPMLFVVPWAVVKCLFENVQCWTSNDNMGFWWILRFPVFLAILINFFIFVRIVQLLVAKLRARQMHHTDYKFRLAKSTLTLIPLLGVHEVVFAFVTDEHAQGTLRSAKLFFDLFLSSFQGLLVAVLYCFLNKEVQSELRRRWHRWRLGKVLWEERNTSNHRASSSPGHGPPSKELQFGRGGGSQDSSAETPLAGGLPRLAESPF

Question: `CCCCCCCCCCCCCCCC(=O)N[C@@H](CCC(=O)NCCOCCOCC(=O)NCCOCCOCC(=O)NCCCC[C@H](NC(=O)[C@H](CCCN)NC(=O)[C@H](CC(=O)O)NC(=O)[C@H](CC(C)C)NC(=O)[C@](C)(CC(C)C)NC(=O)[C@@H](NC(=O)[C@H](CO)NC(=O)[C@H](Cc1ccncc1)NC(=O)[C@H](CC(=O)O)NC(=O)[C@H](CO)NC(=O)[C@@H](NC(=O)[C@](C)(Cc1ccccc1F)NC(=O)[C@@H](NC(=O)CNC(=O)[C@H](CCC(=O)O)NC(=O)C(C)(C)NC(=O)[C@@H](N)Cc1ccc(O)cc1)[C@@H](C)O)[C@@H](C)O)[C@@H](C)CC)C(=O)N[C@@H](C)C(=O)N[C@@H](CCC(N)=O)C(=O)NC(C)(C)C(=O)N[C@@H](CCCCNC(=O)COCCOCCNC(=O)COCCOCCNC(=O)CC[C@H](NC(=O)CCCCCCCCCCCCCCC)C(=O)O)C(=O)N[C@@H](Cc1ccccc1)C(=O)N[C@H](C(=O)N[C@H](CCC(=O)O)C(=O)N[C@@](C)(Cc1ccc(O)cc1)C(=O)N[C@@H](CC(C)C)C(=O)N[C@H](C(=O)N[C@@H](CCC(=O)O)C(=O)NCC(=O)NCC(=O)N1CCC[C@H]1C(=O)N[C@@H](CO)C(=O)N[C@@H](CO)C(=O)NCC(=O)N[C@@H](C)C(=O)N1CCC[C@H]1C(=O)N1CCC[C@H]1C(=O)N1CCC[C@H]1C(=O)N[C@@H](CO)C(N)=O)[C@@H](C)CC)[C@@H](C)CC)C(=O)O` [Example 21] was tested. Which EC50 [1, 5] did it give?
Answer: > 9950 nM

Question: And the EC50 [1, 6]?
Answer: > 9950 nM

Question: What about the EC50 [2, 7] of the same molecule?
Answer: 0.806 nM

Question: And the EC50 [3, 8]?
Answer: 0.302 nM

Question: What about the Ki [4, 9] of the same molecule?
Answer: 0.246 nM

Question: Which results are given for `CCCCCCCCCCCCCCCC(=O)N[C@@H](CCC(=O)NCCOCCOCC(=O)NCCOCCOCC(=O)NCCCC[C@H](NC(=O)[C@H](CCCN)NC(=O)[C@H](CC(=O)O)NC(=O)[C@H](CC(C)C)NC(=O)[C@](C)(CC(C)C)NC(=O)[C@@H](NC(=O)[C@H](CO)NC(=O)[C@H](Cc1ccncc1)NC(=O)[C@H](CC(=O)O)NC(=O)[C@H](CO)NC(=O)[C@@H](NC(=O)[C@](C)(Cc1ccccc1F)NC(=O)[C@@H](NC(=O)CNC(=O)[C@H](CCC(=O)O)NC(=O)C(C)(C)NC(=O)[C@@H](N)Cc1ccc(O)cc1)[C@@H](C)O)[C@@H](C)O)[C@@H](C)CC)C(=O)N[C@@H](C)C(=O)N[C@@H](CCC(N)=O)C(=O)NC(C)(C)C(=O)N[C@@H](CCC(=O)O)C(=O)N[C@@H](Cc1ccccc1)C(=O)N[C@H](C(=O)N[C@@H](CCCCNC(=O)COCCOCCNC(=O)COCCOCCNC(=O)CC[C@H](NC(=O)CCCCCCCCCCCCCCC)C(=O)O)C(=O)N[C@@](C)(Cc1ccc(O)cc1)C(=O)N[C@@H](CC(C)C)C(=O)N[C@H](C(=O)N[C@@H](CCC(=O)O)C(=O)NCC(=O)NCC(=O)N1CCC[C@H]1C(=O)N[C@@H](CO)C(=O)N[C@@H](CO)C(=O)NCC(=O)N[C@@H](C)C(=O)N1CCC[C@H]1C(=O)N1CCC[C@H]1C(=O)N1CCC[C@H]1C(=O)N[C@@H](CO)C(N)=O)[C@@H](C)CC)[C@@H](C)CC)C(=O)O` [Example 22]?
Answer: EC50 ([1]; hGCGR EC50, nM (SEM, n), 0.1% bovine casein and 1.0% human serum albumin, 37° C.): > 9950 nM; EC50 ([1]; hGCGR EC50, nM (SEM, n), cAMP, incubated at 37° C., 0.1% bovine casein (no human serum albumin)): > 9950 nM; EC50 ([2]; hGLP-1R EC50, nM (SEM, n)): 1.5 nM; Emax ([3]; HEK293, read-out: hGIPR Emax, % ± SEM, 0.1% bovine casein and 1.0% human serum albumin, 37° C.): 93.4 ± 0.775%; EC50 ([3]; hGIPR EC50, nM (SEM, n), 37° C.): 0.533 nM; Ki [4]: 0.301 nM

Question: Which results are given for `CCCCCCCCCCCCCCCC(=O)N[C@@H](CCC(=O)NCCOCCOCC(=O)NCCOCCOCC(=O)NCCCC[C@H](NC(=O)[C@H](CCCN)NC(=O)[C@H](CC(=O)O)NC(=O)[C@H](CC(C)C)NC(=O)[C@](C)(CC(C)C)NC(=O)[C@@H](NC(=O)[C@H](CO)NC(=O)[C@H](CCCCNC(=O)COCCOCCNC(=O)COCCOCCNC(=O)CC[C@H](NC(=O)CCCCCCCCCCCCCCC)C(=O)O)NC(=O)[C@H](CC(=O)O)NC(=O)[C@H](CO)NC(=O)[C@@H](NC(=O)[C@](C)(Cc1ccccc1F)NC(=O)[C@@H](NC(=O)CNC(=O)[C@H](CCC(=O)O)NC(=O)C(C)(C)NC(=O)[C@@H](N)Cc1ccc(O)cc1)[C@@H](C)O)[C@@H](C)O)[C@@H](C)CC)C(=O)N[C@@H](C)C(=O)N[C@@H](CCC(N)=O)C(=O)NC(C)(C)C(=O)N[C@@H](CCC(=O)O)C(=O)N[C@@H](Cc1ccccc1)C(=O)N[C@H](C(=O)N[C@H](CCC(=O)O)C(=O)N[C@@](C)(Cc1ccc(O)cc1)C(=O)N[C@@H](CC(C)C)C(=O)N[C@H](C(=O)N[C@@H](CCC(=O)O)C(=O)NCC(=O)NCC(=O)N1CCC[C@H]1C(=O)N[C@@H](CO)C(=O)N[C@@H](CO)C(=O)NCC(=O)N[C@@H](C)C(=O)N1CCC[C@H]1C(=O)N1CCC[C@H]1C(=O)N1CCC[C@H]1C(=O)N[C@@H](CO)C(N)=O)[C@@H](C)CC)[C@@H](C)CC)C(=O)O` [Example 29]?
Answer: EC50 [1, 5]: > 9950 nM; EC50 [1, 6]: > 9950 nM; EC50 [2, 7]: 0.876 nM; Emax ([2]; HEK293, percent of maximal response to GLP-1(7-36)NH2, 0.1% bovine casein, arithmetic mean, read-out: hGLP-1R Emax, % ± SEM): 100 ± 6.65%; EC50 [3, 8]: 0.472 nM; Emax ([3]; HEK293, 0.1% bovine casein and 1.0% human serum albumin, 37° C., read-out: hGIPR Emax, % ± SEM): 96.9 ± 5.32%; Ki [4, 9]: 0.412 nM

Source: patent US20230265151A1, “GIP/GLP1 CO-AGONIST COMPOUNDS” (priority 2020, published 2023)
